Reference: the kinase profiling compilation of Christmann-Franck et al. (2016)

How the values were obtained:
Experiment in all cases: KINOMEscan competition binding
Settings in all cases: compound 10.0 µM
[1] = biological target: TGFBR2 (human) (UniProt P37173)
[2] = biological target: OXSR1 (human) (UniProt O95747)
[3] = biological target: MAP2K4 (human) (UniProt P45985)
[4] = biological target: SBK1 (human) (UniProt Q52WX2)
[5] = biological target: TEC (human) (UniProt P42680)
[6] = system: EGFR (human), P00533 [752-759 del]
[7] = biological target: CAMK2B (human) (UniProt Q13554)
[8] = biological target: CHUK (human) (UniProt O15111)
CHUK (human), sequence (O15111 whole entry, looked up): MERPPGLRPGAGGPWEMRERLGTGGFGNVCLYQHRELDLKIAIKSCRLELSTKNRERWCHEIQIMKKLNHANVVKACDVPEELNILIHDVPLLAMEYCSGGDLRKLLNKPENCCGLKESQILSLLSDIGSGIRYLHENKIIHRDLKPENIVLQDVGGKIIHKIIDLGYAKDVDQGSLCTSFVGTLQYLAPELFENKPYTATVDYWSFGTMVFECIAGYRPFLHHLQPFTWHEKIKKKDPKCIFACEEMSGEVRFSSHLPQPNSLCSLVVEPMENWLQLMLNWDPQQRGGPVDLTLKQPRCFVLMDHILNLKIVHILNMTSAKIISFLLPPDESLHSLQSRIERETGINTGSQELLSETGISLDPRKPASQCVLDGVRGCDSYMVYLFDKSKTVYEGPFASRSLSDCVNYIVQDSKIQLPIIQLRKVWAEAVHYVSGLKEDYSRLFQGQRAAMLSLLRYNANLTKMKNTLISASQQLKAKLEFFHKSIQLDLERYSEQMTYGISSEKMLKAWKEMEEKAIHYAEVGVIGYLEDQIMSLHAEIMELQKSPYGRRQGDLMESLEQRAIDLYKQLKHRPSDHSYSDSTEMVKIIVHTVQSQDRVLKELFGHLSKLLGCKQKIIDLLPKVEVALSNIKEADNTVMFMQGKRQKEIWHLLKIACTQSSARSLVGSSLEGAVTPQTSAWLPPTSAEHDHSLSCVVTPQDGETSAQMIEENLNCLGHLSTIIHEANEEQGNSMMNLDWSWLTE

[9] = biological target: CSNK1G3 (human) (UniProt Q9Y6M4)
[10] = biological target: MAPK9 (human) (UniProt P45984)
[11] = biological target: STK32C (human) (UniProt Q86UX6)
[12] = biological target: DCLK1 (human) (UniProt O15075)
[13] = biological target: STK33 (human) (UniProt Q9BYT3)
[14] = biological target: BRAF (human) (UniProt P15056)
[15] = biological target: MAPK15 (human) (UniProt Q8TD08)
[16] = system: KIT (human), P10721 [L576P]
[17] = system: RET (human), P07949 [V804M]
[18] = biological target: ADCK4 (human) (UniProt Q96D53)
[19] = biological target: PRKCH (human) (UniProt P24723)
[20] = biological target: DYRK1A (human) (UniProt Q13627)
[21] = biological target: CDK9 (human) (UniProt P50750)
[22] = biological target: PRKAA2 (human) (UniProt P54646)
[23] = biological target: NEK5 (human) (UniProt Q6P3R8)
[24] = system: CPK1 (P.falciparum)
[25] = biological target: PRKACB (human) (UniProt P22694)
[26] = biological target: IRAK3 (human) (UniProt Q9Y616)
[27] = biological target: IRAK4 (human) (UniProt Q9NWZ3)
IRAK4 (human), sequence (Q9NWZ3 whole entry, looked up): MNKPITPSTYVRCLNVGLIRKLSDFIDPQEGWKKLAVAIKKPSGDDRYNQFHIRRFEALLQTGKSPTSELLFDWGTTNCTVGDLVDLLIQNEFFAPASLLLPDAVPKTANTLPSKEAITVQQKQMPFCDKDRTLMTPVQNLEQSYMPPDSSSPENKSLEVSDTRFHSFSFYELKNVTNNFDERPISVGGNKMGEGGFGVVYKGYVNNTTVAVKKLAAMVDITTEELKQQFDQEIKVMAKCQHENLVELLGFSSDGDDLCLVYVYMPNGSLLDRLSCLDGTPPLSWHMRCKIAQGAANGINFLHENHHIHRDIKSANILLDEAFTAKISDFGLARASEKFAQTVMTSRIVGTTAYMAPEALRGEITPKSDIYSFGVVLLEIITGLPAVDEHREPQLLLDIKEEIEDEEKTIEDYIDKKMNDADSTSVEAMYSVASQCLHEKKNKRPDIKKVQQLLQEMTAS

[28] = biological target: CSNK1G2 (human) (UniProt P78368)
CSNK1G2 (human), sequence (P78368 whole entry, looked up): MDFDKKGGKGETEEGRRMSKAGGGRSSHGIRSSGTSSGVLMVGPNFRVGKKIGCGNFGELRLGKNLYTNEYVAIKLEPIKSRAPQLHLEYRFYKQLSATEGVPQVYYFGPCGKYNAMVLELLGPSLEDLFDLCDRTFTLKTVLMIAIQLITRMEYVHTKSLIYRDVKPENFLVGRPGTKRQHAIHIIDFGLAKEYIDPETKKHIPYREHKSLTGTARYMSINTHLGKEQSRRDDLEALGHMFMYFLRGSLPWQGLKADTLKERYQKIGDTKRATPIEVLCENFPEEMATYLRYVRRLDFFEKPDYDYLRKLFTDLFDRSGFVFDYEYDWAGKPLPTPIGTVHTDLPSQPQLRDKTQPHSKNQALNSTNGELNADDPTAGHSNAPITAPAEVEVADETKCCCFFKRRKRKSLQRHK

[29] = biological target: PKN1 (human) (UniProt Q16512)
[30] = biological target: MAP3K2 (human) (UniProt Q9Y2U5)
MAP3K2 (human), sequence (Q9Y2U5 whole entry, looked up): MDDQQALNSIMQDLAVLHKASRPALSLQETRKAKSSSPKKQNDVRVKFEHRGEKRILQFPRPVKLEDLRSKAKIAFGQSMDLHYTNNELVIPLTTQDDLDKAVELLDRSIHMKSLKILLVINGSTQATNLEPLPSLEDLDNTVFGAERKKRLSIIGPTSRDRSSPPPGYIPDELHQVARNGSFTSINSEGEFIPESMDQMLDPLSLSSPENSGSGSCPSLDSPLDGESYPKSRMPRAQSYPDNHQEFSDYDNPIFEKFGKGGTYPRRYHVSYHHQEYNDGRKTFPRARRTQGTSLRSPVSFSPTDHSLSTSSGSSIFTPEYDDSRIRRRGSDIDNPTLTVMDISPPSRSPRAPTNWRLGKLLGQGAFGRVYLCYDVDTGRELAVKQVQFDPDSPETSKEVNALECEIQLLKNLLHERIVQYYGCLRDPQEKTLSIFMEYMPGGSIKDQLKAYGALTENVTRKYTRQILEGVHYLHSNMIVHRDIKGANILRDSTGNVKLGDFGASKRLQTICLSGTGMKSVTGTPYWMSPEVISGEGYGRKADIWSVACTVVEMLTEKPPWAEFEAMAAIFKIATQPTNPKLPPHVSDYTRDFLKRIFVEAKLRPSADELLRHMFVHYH

[31] = biological target: HIPK2 (human) (UniProt Q9H2X6)
[32] = biological target: NEK6 (human) (UniProt Q9HC98)
[33] = biological target: ACVRL1 (human) (UniProt P37023)
[34] = biological target: EPHA6 (human) (UniProt Q9UF33)
[35] = biological target: PRKD3 (human) (UniProt O94806)
[36] = biological target: NEK7 (human) (UniProt Q8TDX7)
NEK7 (human), sequence (Q8TDX7 whole entry, looked up): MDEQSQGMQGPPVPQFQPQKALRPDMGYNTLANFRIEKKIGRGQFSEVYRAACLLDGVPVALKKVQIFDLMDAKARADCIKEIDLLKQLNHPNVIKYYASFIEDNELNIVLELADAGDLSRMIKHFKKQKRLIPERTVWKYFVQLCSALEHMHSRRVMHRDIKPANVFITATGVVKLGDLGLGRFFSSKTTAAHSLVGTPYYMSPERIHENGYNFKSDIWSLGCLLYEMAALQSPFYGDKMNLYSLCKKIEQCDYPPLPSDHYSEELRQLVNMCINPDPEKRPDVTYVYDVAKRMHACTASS

[37] = biological target: CHEK1 (human) (UniProt O14757)
CHEK1 (human), sequence (O14757 whole entry, looked up): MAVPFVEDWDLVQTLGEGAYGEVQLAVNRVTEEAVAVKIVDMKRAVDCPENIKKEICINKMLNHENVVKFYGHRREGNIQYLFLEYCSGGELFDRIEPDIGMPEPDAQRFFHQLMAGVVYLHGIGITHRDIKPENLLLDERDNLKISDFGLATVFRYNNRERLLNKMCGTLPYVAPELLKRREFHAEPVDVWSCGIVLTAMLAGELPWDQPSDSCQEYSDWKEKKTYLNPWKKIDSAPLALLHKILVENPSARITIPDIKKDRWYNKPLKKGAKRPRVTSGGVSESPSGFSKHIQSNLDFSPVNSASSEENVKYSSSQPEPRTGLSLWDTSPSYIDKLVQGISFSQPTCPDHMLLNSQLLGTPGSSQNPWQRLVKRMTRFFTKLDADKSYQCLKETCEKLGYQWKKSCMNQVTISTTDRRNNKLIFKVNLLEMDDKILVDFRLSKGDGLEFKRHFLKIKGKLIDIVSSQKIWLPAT

[38] = biological target: TYRO3 (human) (UniProt Q06418)
[39] = biological target: PLK1 (human) (UniProt P53350)
[40] = biological target: MAP3K5 (human) (UniProt Q99683)
MAP3K5 (human), sequence (Q99683 whole entry, looked up): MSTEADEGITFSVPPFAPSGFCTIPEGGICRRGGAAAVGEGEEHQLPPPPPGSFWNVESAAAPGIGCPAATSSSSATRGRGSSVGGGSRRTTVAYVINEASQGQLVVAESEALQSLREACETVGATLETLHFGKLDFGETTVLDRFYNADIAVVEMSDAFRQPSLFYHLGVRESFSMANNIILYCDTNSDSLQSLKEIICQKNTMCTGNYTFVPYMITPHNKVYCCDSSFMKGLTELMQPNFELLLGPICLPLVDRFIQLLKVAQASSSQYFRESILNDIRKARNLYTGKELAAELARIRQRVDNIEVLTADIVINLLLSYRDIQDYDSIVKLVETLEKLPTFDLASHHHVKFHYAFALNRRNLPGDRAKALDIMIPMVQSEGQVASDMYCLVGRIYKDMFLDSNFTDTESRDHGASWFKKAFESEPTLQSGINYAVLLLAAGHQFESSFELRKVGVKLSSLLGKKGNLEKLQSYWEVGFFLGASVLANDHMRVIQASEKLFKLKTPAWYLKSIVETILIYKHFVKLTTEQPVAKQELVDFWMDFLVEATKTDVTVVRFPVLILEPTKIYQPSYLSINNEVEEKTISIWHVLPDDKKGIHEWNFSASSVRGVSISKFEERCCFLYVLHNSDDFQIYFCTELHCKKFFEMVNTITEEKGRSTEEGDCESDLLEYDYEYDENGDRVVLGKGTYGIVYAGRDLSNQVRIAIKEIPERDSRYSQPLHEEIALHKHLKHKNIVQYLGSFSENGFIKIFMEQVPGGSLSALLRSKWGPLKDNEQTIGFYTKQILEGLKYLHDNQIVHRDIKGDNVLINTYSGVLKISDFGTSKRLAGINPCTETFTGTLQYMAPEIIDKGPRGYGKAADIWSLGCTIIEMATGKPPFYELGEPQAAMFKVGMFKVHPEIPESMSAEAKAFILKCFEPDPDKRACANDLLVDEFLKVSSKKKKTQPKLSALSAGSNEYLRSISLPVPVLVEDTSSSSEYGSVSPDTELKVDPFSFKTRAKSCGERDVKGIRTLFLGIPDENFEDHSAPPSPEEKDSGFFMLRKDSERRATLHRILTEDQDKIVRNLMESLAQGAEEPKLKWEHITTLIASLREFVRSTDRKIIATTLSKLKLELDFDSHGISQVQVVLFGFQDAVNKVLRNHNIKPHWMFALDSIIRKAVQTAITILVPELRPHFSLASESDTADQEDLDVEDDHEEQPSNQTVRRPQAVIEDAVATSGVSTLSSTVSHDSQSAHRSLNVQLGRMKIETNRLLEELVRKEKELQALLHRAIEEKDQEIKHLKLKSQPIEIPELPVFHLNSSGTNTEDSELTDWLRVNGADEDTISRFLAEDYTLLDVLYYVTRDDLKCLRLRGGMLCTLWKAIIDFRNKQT

TEC (human), sequence (P42680 whole entry, looked up): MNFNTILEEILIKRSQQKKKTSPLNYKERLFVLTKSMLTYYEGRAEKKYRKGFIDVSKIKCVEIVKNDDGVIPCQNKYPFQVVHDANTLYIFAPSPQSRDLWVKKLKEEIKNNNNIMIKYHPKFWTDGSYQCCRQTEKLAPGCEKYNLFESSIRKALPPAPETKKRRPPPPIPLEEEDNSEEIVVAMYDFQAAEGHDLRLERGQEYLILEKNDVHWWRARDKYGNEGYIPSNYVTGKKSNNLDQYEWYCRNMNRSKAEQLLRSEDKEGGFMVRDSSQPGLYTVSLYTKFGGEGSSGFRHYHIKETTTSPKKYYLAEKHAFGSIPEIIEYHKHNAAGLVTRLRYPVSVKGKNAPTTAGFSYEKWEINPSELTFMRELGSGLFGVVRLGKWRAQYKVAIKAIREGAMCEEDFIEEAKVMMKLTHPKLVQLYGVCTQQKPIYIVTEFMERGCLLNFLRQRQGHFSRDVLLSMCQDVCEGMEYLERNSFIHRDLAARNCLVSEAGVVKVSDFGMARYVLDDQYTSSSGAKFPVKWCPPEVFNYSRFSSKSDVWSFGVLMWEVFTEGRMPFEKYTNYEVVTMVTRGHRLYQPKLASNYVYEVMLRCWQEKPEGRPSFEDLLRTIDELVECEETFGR

| SMILES | kinase still bound, per cent of control [1] [%] | kinase still bound, per cent of control [3] [%] | kinase still bound, per cent of control [4] [%] | kinase still bound, per cent of control [5] [%] | kinase still bound, per cent of control [8] [%] | kinase still bound, per cent of control [9] [%] | kinase still bound, per cent of control [10] [%] | kinase still bound, per cent of control [11] [%] | kinase still bound, per cent of control [12] [%] | kinase still bound, per cent of control [13] [%] | kinase still bound, per cent of control [14] [%] | kinase still bound, per cent of control [15] [%] | kinase still bound, per cent of control [18] [%] | kinase still bound, per cent of control [20] [%] | kinase still bound, per cent of control [21] [%] | kinase still bound, per cent of control [22] [%] | kinase still bound, per cent of control [23] [%] | kinase still bound, per cent of control [25] [%] | kinase still bound, per cent of control [26] [%] | kinase still bound, per cent of control [27] [%] | further results |
| --- | --- | --- | --- | --- | --- | --- | --- | --- | --- | --- | --- | --- | --- | --- | --- | --- | --- | --- | --- | --- | --- |
| O=c1cc(N2CCOCC2)oc2c(-c3cccc4c3sc3ccccc34)cccc12 | 89 | 100 | 100 | 89 | 100 | 100 | 39 | 54 | 84 | 100 | 100 | 100 | 73 | 61 | 98 | 100 | 100 | 92 | 41 | 99 | kinase still bound, per cent of control [2]: 100%; kinase still bound, per cent of control [6]: 100%; kinase still bound, per cent of control [7]: 80%; kinase still bound, per cent of control [16]: 66%; kinase still bound, per cent of control [17]: 95%; kinase still bound, per cent of control [19]: 100%; kinase still bound, per cent of control [24]: 98%; kinase still bound, per cent of control [28]: 85%; kinase still bound, per cent of control [29]: 100%; kinase still bound, per cent of control [30]: 100%; kinase still bound, per cent of control [31]: 100%; kinase still bound, per cent of control [32]: 100%; kinase still bound, per cent of control [33]: 94%; kinase still bound, per cent of control [34]: 89%; kinase still bound, per cent of control [35]: 100%; kinase still bound, per cent of control [36]: 100%; kinase still bound, per cent of control [37]: 100%; kinase still bound, per cent of control [38]: 100%; kinase still bound, per cent of control [39]: 94%; kinase still bound, per cent of control [40]: 100% |
| N#CCNC(=O)c1ccc(-c2ccnc(Nc3ccc(N4CCOCC4)cc3)n2)cc1 | 89 | 32 | 46 | 100 | 0 | 100 | 26 | 100 | 52 | 98 | 74 | 0.25 | 33 | 66 | 55 | 74 | 2.4 | 36 | 22 | 64 | kinase still bound, per cent of control [2]: 58%; kinase still bound, per cent of control [6]: 72%; kinase still bound, per cent of control [7]: 14%; kinase still bound, per cent of control [24]: 100%; kinase still bound, per cent of control [28]: 100%; kinase still bound, per cent of control [29]: 66%; kinase still bound, per cent of control [30]: 100%; kinase still bound, per cent of control [31]: 15%; kinase still bound, per cent of control [32]: 6.2%; kinase still bound, per cent of control [33]: 47%; kinase still bound, per cent of control [34]: 98%; kinase still bound, per cent of control [35]: 65%; kinase still bound, per cent of control [36]: 2.2%; kinase still bound, per cent of control [37]: 100%; kinase still bound, per cent of control [38]: 100%; kinase still bound, per cent of control [39]: 100%; kinase still bound, per cent of control [40]: 100% |
| C[C@@H](Oc1cc(-c2cnn(C3CCNCC3)c2)cnc1N)c1c(Cl)ccc(F)c1Cl | 100 | 93 | 6 | 100 | 100 | 100 | 82 | 100 | 2 | 26 | 53 | 80 | 3.4 | 100 | 88 | 17 | 63 | 100 | 0.95 | 24 | kinase still bound, per cent of control [16]: 43%; kinase still bound, per cent of control [19]: 100%; kinase still bound, per cent of control [28]: 100%; kinase still bound, per cent of control [29]: 38%; kinase still bound, per cent of control [30]: 0.05%; kinase still bound, per cent of control [31]: 93%; kinase still bound, per cent of control [32]: 27%; kinase still bound, per cent of control [33]: 45%; kinase still bound, per cent of control [34]: 0.7%; kinase still bound, per cent of control [35]: 3%; kinase still bound, per cent of control [36]: 6.7%; kinase still bound, per cent of control [37]: 91%; kinase still bound, per cent of control [39]: 83%; kinase still bound, per cent of control [40]: 100% |
